Broadly, the AC50 is the midpoint of the concentration-response curve, whichever way the signal moves. The EC50 is the concentration needed to bring the measured effect to its halfway point. By IC50 is commonly meant the concentration needed to halve the response being measured.

For one data set, the target named is Cytochrome P450 3A4 (Homo sapiens, UniProt P08684).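 Also: CYP3A4 tested as one member of a cytochrome P450 panel screen.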
Data set [1] can be described thus: inhibitors of HIV Env-driven cell fusion, dose response, cherry-pick (AID 652057). The class given is functional, cell-based.
The nature of data set [2]: ZM109 Env clade C HIV-1 fusion inhibitors, dose response, HeLa effector, CEM target cells, luciferase, cherry-pick (AID 652058). The data set is classed as functional, cell-based.
Data set [3] in a line: off-target signal loss in HeLa-CEM21 co-culture – HeLa F-luc CTL cells, cherry-picked, counter-screen for HIV-1 Env fusion inhibitor project, dose response (AID 652040).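 Also: potency for signal decrease marking cytotoxic or nonspecific inhibition.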 The data set is classed as functional, cell-based.
A short description of data set [4]: inhibitors of clade B AD8 Env fusion, dose response, cell-based, cherry-pick (AID 652062).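 Also: luciferase signal from cell-cell fusion driven by HIV-1 clade B AD8 Env; potency is for inhibitors of fusion seen as a drop in luminescence.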 The data set is classed as functional.
Data set [5] relates to HEK293. As to the kind of experiment: cells. Particulars: Homo sapiens.
Data set [6] concerns HEK293. As to the kind of experiment: cells. Particulars: Homo sapiens. The source holds these as a separate data set.
The nature of data set [7]: NIH-3T3 fibroblast cytotoxicity, dose response, cytotoxicity control, cell-based, fluorescence, Alamar Blue, secondary assay (AID 2327).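 Also: NIH-3T3 mouse fibroblasts cultured with fluconazole at 8 µg/mL.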 The class given is functional. (In general: The colour change of resazurin is a common sign of viable cells or microbes.)
The test system of data set [8] is Streptococcus sp. 'group A'. As to the kind of experiment: growth inhibition of control SK(-) GAS strain, dose response, counter-screen for streptokinase expression inhibitor project, luminescence, kanamycin, BacTiterGlo, confirmation (AID 1900). The data set is classed as functional, organism-based. A general note: A counterscreen serves to expose hits that act by an unwanted route or on another target.

Data set [9] can be described thus: C. albicans growth with fluconazole, confirmation, fluorescence, retest (AID 2467). The class given is functional, cell-based.
A further data set deals with Streptococcus. As to the kind of experiment: Group A Streptococcus viability loss, dose response, counter-screen for streptokinase expression inhibitor project, luminescence, BacTiterGlo (AID 1915).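 Also: potency for reduction of bacterial viability or growth.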 The class given is functional, organism-based.
Data set [10] has as its target Heat shock protein HSP 90-alpha (Homo sapiens, UniProt P07900). The data set is classed as functional, organism-based.
The test system of data set [11] is Vero. As to the kind of experiment: Vero cell cytotoxicity, cytotoxicity control for flavivirus capping enzyme inhibitors (AID 588742). The class given is functional. The conditions noted are these: Chlorocebus sabaeus.
In a further data set the test system is INS1. Nature of the data set: beta cell apoptosis inhibitors, cytokine rescue, dose response, luminescence, retest (AID 449756).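 Also: cell death triggered by IL-1 beta plus TNF-alpha plus IFN-gamma mixture; protective hits raise ATP signal compared with cytokine alone wells.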 The data set is classed as functional, cell-based. Particulars: Rattus norvegicus.
Data set [12] in a line: insulin promoter down-regulators in MIN6 cells, imaging, high-content screening, mouse beta cells (AID 1628). The class given is functional.
Data set [13] is described as follows: cytotoxicity in MIN6 insulinoma cells, dose response, cytotoxicity control, cell-based, mouse insulinoma (AID 2122).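 Also: confirmatory high-throughput counterscreen run to flag cytotoxic compounds; mouse MIN-6 beta cells carrying an insulin promoter eGFP reporter.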 The data set is classed as functional.
Data set [14] in a line: microbe, parasite or virus in culture. The data set is classed as functional. Particulars: Mycobacterium tuberculosis.
Data set [15] in a line: growth suppression of PTEN-null colon cells, dose response, cell-based, HCT116 PTEN knockout (AID 1047).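 Also: HCT116 colon tumor cells with PTEN knocked out; cells exposed to compound for 60 hours before readout; potency for loss of cell viability measured by luminescence.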 The data set is classed as functional.
Data set [16] in a line: growth suppression of beta-catenin-knockout colon cells, dose response, cell-based, HCT116, human colon tumor (AID 1045).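 Also: HCT116 colon tumor cells with beta catenin knocked out; cells exposed to compound for 60 hours.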 The class given is functional.
Data set [17] deals with HEK293. Nature of the data set: NOD1 signaling inhibitors, primary screen, cell-based, luminescence, uHTS (AID 1578). The data set is classed as functional. Particulars: Homo sapiens.
Data set [18] concerns HEK293. Nature of the data set: cells. The data set is classed as functional, cell-based. Particulars: Homo sapiens.
For data set [19], the system named is HEK293. Nature of the data set: cells. The data set is classed as functional, cell-based. Particulars: Homo sapiens. This is another data set of the same source.
Data set [20] concerns HEK293. As to the kind of experiment: NOD2 signaling inhibitors in MDP-stimulated cells, cell-based, uHTS, luminescence (AID 2001). The class given is functional. The conditions noted are these: Homo sapiens.
The nature of data set [21]: Luminescence Cell-Based Dose Retest to Confirm Inhibitors of Cancer Stem Cells. [Related pubchem assays (depositor defined):AID2717, AID2721]. Particulars: Homo sapiens. The data set is classed as functional.
The target in data set [22] is T1, Microphthalmia-associated transcription factor (Homo sapiens, UniProt O75030).
T1 sequence (O75030 whole entry): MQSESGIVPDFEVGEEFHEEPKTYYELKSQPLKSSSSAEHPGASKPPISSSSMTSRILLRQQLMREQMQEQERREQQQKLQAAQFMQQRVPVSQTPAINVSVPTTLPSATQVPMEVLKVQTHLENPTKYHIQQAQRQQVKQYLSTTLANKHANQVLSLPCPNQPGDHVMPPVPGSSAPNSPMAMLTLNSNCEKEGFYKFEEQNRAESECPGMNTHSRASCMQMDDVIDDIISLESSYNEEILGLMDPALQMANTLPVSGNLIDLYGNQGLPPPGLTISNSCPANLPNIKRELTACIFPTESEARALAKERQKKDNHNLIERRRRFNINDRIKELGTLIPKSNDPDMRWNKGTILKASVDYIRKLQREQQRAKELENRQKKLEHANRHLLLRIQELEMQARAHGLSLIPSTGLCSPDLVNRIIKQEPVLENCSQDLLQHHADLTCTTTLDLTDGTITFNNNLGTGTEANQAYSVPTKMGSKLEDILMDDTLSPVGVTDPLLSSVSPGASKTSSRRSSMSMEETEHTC
Nature of the data set: TRPM1 promoter luciferase signal decrease, dose response, MITF inhibitor project, cell-based, SK-MEL-5, cherry-picked, set 3 (AID 493073).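 Also: SK-MEL-5 melanoma cells with luciferase driven by the MITF target TRPM1 promoter.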 The class given is functional.

For data set [23], the system named is Vero. As to the kind of experiment: cells. The class given is functional, cell-based. Particulars: Chlorocebus sabaeus.
For the next data set, the system named is A-375. Nature of the data set: MITF: Counter assay: A375 proliferation Measured in Cell-Based System Using Plate Reader - 2084-03_Inhibitor_Dose_DryPowder_Activity. [Related pubchem assays (depositor defined):AID488944]. Particulars: Homo sapiens. The data set is classed as functional.
The test system of data set [24] is Vero. As to the kind of experiment: cells. The data set is classed as functional. Particulars: Chlorocebus sabaeus.

Activity calls are given as the source filed them.

Cytochrome P450 3A4, sequence (P08684 whole entry, the tested form may be a part): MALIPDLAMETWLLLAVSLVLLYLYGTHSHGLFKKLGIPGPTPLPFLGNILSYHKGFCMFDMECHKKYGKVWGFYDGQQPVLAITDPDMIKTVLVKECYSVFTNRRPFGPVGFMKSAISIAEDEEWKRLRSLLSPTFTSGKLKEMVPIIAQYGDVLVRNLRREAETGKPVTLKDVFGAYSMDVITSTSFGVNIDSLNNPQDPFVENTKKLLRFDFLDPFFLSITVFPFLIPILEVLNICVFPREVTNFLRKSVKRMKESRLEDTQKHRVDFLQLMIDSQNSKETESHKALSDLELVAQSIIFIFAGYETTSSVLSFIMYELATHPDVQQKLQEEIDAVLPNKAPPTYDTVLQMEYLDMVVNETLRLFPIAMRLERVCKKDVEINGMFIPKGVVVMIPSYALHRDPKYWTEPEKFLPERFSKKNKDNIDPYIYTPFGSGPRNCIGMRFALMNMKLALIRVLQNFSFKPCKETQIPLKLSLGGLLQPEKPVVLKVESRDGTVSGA

`CN(C)c1ncc2nc(-c3ccc(Cl)cc3)c(=O)n(Cc3ccc(F)cc3)c2n1`: on Cytochrome P450 3A4, the half-maximal activity concentration (AC50) entry is “inconclusive”.

As to `COc1ccc(C(C)=O)cc1CC1(C)C(=O)Nc2ccc(-c3ccccc3OC)cc21` (stereo not given), the AC50 in data set [1] is 0.29 µM (active); in data set [2] it was 0.627 µM (active); in data set [3], 0.397 µM (active); in data set [4], 2.02 µM (active). The EC50 with HEK293 [5] and in the data set with HEK293 [6] was > 59.6 µM (inactive) throughout.

As to `CC(=O)NC(c1ccccc1)c1cc(Cl)c2cccnc2c1O` (stereo not given), the EC50 is 4.24 µM (active) in data set [7], 1.73 µM (active) in [8], 0.514 µM (active) in [9] and 2.71 µM (active) with Streptococcus. Moreover, the AC50 in [10] was 3.79 µM (active); with INS1 it was 1.2 µM (active). For the same compound, the CC50 in the data set on Vero [11] was 6.04 µM (active).

On to `c1ccc2c(c1)ncn2CCCCOc1ccc2c(c1)CCC2`, for which the figures for the IC50 in [12] and in [13] were 2.69 µM (active) and 2.1 µM (active), respectively. The CC50 in [14] is > 40 µM (active). Further, the EC50 is 24.1 µM (active) in data set [15] and 22.8 µM (active) in [16]. Moreover, the AC50 is 5.04 µM (active) in the data set on INS1, 28.6 µM (active) in data set [2] and 9.21 µM (active) in data set [4].

Consider `CN(C)S(=O)(=O)c1cc(NC(=O)CSc2nn(-c3ccc(Cl)cc3)c(=S)s2)ccc1Cl`, for which the EC50 with HEK293 [17] was 13.4 µM (active); with HEK293 [5], > 59.7 µM (inactive); in the data set with HEK293 [6], > 59.7 µM (inactive). Further, the concentration for half-maximal inhibition (IC50) in the data set with HEK293 [18] was 5.23 µM (active); in the data set with HEK293 [19], 11.2 µM (active); in the data set on HEK293 [20], 4.69 µM (active).

In the case of `N#C/C(=C\C=C\c1ccccc1[N+](=O)[O-])C(=O)NC1CCCCC1`, the AC50 in [21] was 5.33 µM (active); in data set [22] it was 7.8 µM (active); with A-375, 25.9 µM (active). Besides, the IC50 with Vero [23] is 17 µM (active). Further, in the data set on Vero [24], the CC50 is > 25 µM (active). Further, the EC50 in the data set on HEK293 [5] and with HEK293 [6] was > 59.7 µM (inactive) in each case.
